US20190350240A1, “Electrolyte-Enhanced Sweetener and Consumable Products Obtained” (priority 2018, published 2019)
Entries after “also recorded” stand apart in the source; their conditions may differ.

What was measured:
[1] = Salt Screen #2: thick and heavy flavor before unpleasant off-flavor (taste, TAS); type: in vivo
Excerpt: The second salt screen that was employed tested whether each electrolyte salt could elicit a thick and heavy flavor before it elicited an unpleasant off-flavor, such as saltiness, bitterness, or chalkiness.

[2] = Salt Screen #4: compatibility (CMP) in sweetened cold-brewed coffee and tea; type: in vivo; conditions: sweetener compositions in cold-brewed coffee and tea, pH-sensitive flavors
Procedure: The fourth salt screen that was employed tested whether each electrolyte salt could enhance the sweetener compositions used to sweeten cold-brewed coffee and tea without disturbing the flavors of these pH-sensitive beverages. The disturbance of pH-sensitive flavors is an important screen because many electrolyte salts influence the pH of the beverages to which they are added. This screen was only applied to the five electrolyte salts that passed the three earlier salt screens.

[3] = in sweetener compositions exposed to ambient air (hygroscopicity)
Excerpt: The third salt screen that was employed tested whether each electrolyte salt could enhance the flavor of sweetener compositions and remain shelf stable when exposed to ambient air. This screen is related to the water solubility of the salt. When salts have too much water solubility, they can become hygroscopic which means they absorb water from ambient air. Hygroscopic salts become wet and clumpy when exposed to ambient air, and they cause sweetener compositions containing them to become difficult to package and dispense because of this instability to air exposure.
This third salt screen is complementary to the first salt screen because it identifies salts with too much water solubility, while the first salt screen identifies salts with too little water solubility.

[4] = Carbohydrate screen: flavor at strength of 10% sucrose in water, and mixed with the sweetener composition; type: in vivo; conditions: dissolved into one liter of water to a strength of 10% sucrose
Procedure: Natural sugars and sugar alcohols were screened from commercial sources as candidates for the carbohydrate composition. Refined and unrefined cane sugar, brown sugar, cane juice sugar, maple sugar, coconut sugar, glucose, fructose, and erythritol were dissolved into one liter of water to a strength of 10% sucrose and evaluated for flavor.
Both refined and unrefined cane sugar solutions were mixed with solutions containing the sweetener composition mixed to a strength of 10% sucrose.

[5] = Sugar-like flavor judged by taste judges in water versus 10% or 20% sucrose (taste, intensity, thickness, total); type: in vivo; conditions: for improvement in sugar-like flavor: at optimal dose or ratio, versus starting composition without the added ingredient (zero mg/L; pure S1); for optimal level for sugar-like flavor: potassium in 1300 mg/L HPS, sodium in 1300 mg/L HPS + 200 mg/L potassium
Excerpt: The compositions and methods that embody this invention describe how to form electrolyte-enhanced sweetener compositions that better reproduce the flavor of natural sugar with negligible calories and with favorable physical properties. According to these methods, sugar-like flavor was defined by the numerical consensus of four criteria which were sugar-like taste, intensity, thickness, and compatibility and will be described below.
The four criteria were quantified numerically as four percentile scores. Scores of 100% represented the complete and satisfying reproduction of each criterion of sugar-like flavor. For reference, naturally-refined cane sugar received percentile scores of 100% across all criteria because of how the criteria were defined.
Taste (TAS) The criterion of sugar-like taste encompasses how well a sweetener reproduces the taste of sugar at a high level of sweetness corresponding to a 10% sucrose solution. Ten percent sucrose is equivalent to a 12-ounce soft drink (355 milliliters) sweetened with 36 grams of sucrose. For reference, the sweet taste of sugar develops and recedes across the entire tongue with each tasting in a characteristic way. The time profile of sugar's sweetness is something we generally take for granted until we taste a sweetener with a different time profile that makes it taste unnatural and unsatisfying.
According to a preferred embodiment of this invention, the tastes of sweetener compositions (TAS) were compared to 10% sucrose and evaluated based on the following taste and olfactory flavor properties: • 1. Sweetness across the entire tongue and not in throat; • 2. Rapid onset of sweetness without delay; • 3. Rapid decay of sweetness without lingering after-taste; • 4. Sweetness without bitterness; • 5. Subtle caramel flavor without off-flavors.
Intensity (INT) The criterion of sugar-like intensity represents how well a sweetener reproduces the same five taste properties of sugar (represented by TAS) but at a very high level of sweetness typical in desserts. Drinking water sweetened with 20% sucrose is used as a taste reference for evaluating INT.
Thickness (THK) The criterion of sugar-like thickness represents how well a sweetener reproduces the thick texture of sugar-sweetening that becomes syrupy at higher dose levels. Drinking water samples sweetened with 10% sucrose and with 20% sucrose are used as taste references for evaluating THK.
Total (TOT) The consensus of the percentile scores for the four criteria was determined by numerical averaging to form a total score of sugar-like flavor.
The first three criteria for sugar-like flavor—taste TAS, intensity INT, and thickness THK—were evaluated by taste judges who compared water sweetened to a level of either 10% or 20% sucrose to water sweetened with various sweetener compositions. A level of 10% sucrose represents the sweetness of typical soft drinks and 20% sucrose represents the sweetness of typical desserts.
Taste judges initially evaluated the sugar-like taste TAS and thickness THK of sweetener compositions at the sweetness level of typical soft drinks. They rinsed their mouths with plain water and then evaluated a 100 mL sample of 10% sucrose solution. They took a 15 mL aliquot of the sample into the mouth and swished it around for about 15 seconds. For each mouthful, they evaluated the time course of sweetness onset and decay, natural sugar flavors, off-flavors, and thickness, and they expelled the aliquot into a waste receptacle. Judges continued taking a series of mouthfuls up to a total volume of 100 mL to evaluate the changes in flavor perception from one mouthful to the next related to the natural loss of perceived sweetness, flavor, and thickness of sugar solutions. This protocol was then repeated for each 100 mL sample of spring water sweetened with various sweetener compositions. […]

[6] = cool drinking water, without lengthy stirring or heating
Excerpt: The first salt screen that was employed tested whether each electrolyte salt had sufficient water solubility. The screen tested whether each salt could dissolve sufficiently into cool drinking water and […] without the need for lengthy stirring or heating.

[7] = thick and heavy flavor before saltiness, bitterness or chalkiness

O=C([O-])[O-].[Ca+2] [Calcium Carbonate, calcium carbonate]
Does the Electrolyte Salt Have Suitable Taste (TAS)? ([1]; in vivo): NO, Develops chalky and dry flavor; also recorded: tasted chalky

[Ca+2].[Cl-].[Cl-] [Calcium Chloride, calcium chloride]
Does the Electrolyte Salt Have Suitable Taste (TAS)? ([1]; in vivo): Yes

CC(O)C(=O)[O-].CC(O)C(=O)[O-].[Ca+2] (stereo not shown) [Calcium Lactate, calcium lactate]
Does the Electrolyte Salt have Suitable Compatibility (CMP)? [2]: NO, Develops sour/chalky flavor
Does the Electrolyte Salt have Suitable Compatibility (CMP)? ([2]; listed as calcium lactate): sour and chalky
Does the Electrolyte Salt Have Suitable Taste (TAS)? [1, 7]: Yes
Does the Electrolyte Salt have Suitable Shelf Stability? [3]: Yes

OC[C@@H](O)[C@@H](O)CO [Erythritol, erythritol]
flavor evaluation of carbohydrate candidates [4]: drying sensation on the tongue or cooling sensation on the throat

O=C(CO)[C@@H](O)[C@H](O)[C@H](O)CO [Fructose, fructose]
flavor evaluation of carbohydrate candidates [4]: lose its sweetness at higher temperatures

[Cl-].[Cl-].[Mg+2] [Magnesium Chloride, magnesium chloride]
Does the Electrolyte Salt Have Suitable Taste (TAS)? ([1]; in vivo): Yes

O=S(=O)([O-])[O-].[Mg+2] [Magnesium Sulfate, magnesium sulfate]
Does the Electrolyte Salt Have Suitable Taste (TAS)? ([1]; in vivo): NO, Develops sour and dry flavor; also recorded: tasted sour

[Cl-].[K+] [Potassium Chloride, potassium chloride]
improvement in sugar-like flavor [5]: about 10%
optimal level for sugar-like flavor [5]: 200 mg/L
Does the Electrolyte Salt have Suitable Compatibility (CMP)? [2]: Yes
Does the Electrolyte Salt have Suitable Compatibility (CMP)? ([2]; listed as Potassium chloride): passed
Does the Electrolyte Salt Have Suitable Taste (TAS)? [1, 7]: Yes
Does the Electrolyte Salt have Suitable Shelf Stability? [3]: Yes
Does the Electrolyte Salt Have Suitable Solubility? [6]: Yes

O=C([O-])O.[Na+] [Sodium Bicarbonate, sodium bicarbonate]
Does the Electrolyte Salt have Suitable Compatibility (CMP)? [2]: NO, Develops sour/chalky flavor
Does the Electrolyte Salt have Suitable Compatibility (CMP)? ([2]; listed as sodium carbonate): sour and chalky
Does the Electrolyte Salt Have Suitable Taste (TAS)? [1, 7]: Yes

[Cl-].[Na+] [Sodium Chloride, sodium chloride]
taste of sweetened, potassium-enriched water with sodium chloride ([5]; HPS 1300 mg/L, potassium 200 mg/L, dietary sodium level of 150 grams per liter (so in the source)): thick and only mildly salty
taste of sweetened, potassium-enhanced water with sodium chloride ([5]; HPS 1300 mg/L, potassium 200 mg/L, sodium level of 600 mg/L): unacceptably salty
improvement in sugar-like flavor [5]: about 5%
optimal level for sugar-like flavor [5]: 40 mg/L
Does the Electrolyte Salt have Suitable Compatibility (CMP)? [2]: Yes
Does the Electrolyte Salt have Suitable Compatibility (CMP)? ([2]; listed as sodium chloride): passed
Does the Electrolyte Salt Have Suitable Taste (TAS)? [1, 7]: Yes

O=P([O-])(O)O.[Na+] [Sodium Phosphate Monobasic, sodium phosphate monobasic]
Does the Electrolyte Salt have Suitable Compatibility (CMP)? [2]: NO, Develops sour/chalky flavor
Does the Electrolyte Salt have Suitable Compatibility (CMP)? ([2]; listed as sodium phosphate monobasic): sour and chalky
Does the Electrolyte Salt Have Suitable Taste (TAS)? [1, 7]: Yes
Does the Electrolyte Salt have Suitable Shelf Stability? [3]: Yes
